From patent publication US10100019B2
Like-named read-outs stand apart in the source and are kept apart here.

Experiments:
H3122 cells = assay: Cytotoxicity in non-small cell lung cancer cell line H3122 (SRB); assay type: cell-based, human; conditions: H3122 cells, three days, SRB
Experimental: Particularly, 4,000 H3122 cells containing ALK enzyme were distributed in each well of a 96 well plate together with 100 μl of DMEM (Dulbecco's Modified Eagle's Medium). One day later, the compound of the present invention was added to each well at different concentrations of […]. DMSO (dimethylsulfoxide) was added to the well that was not loaded with the compound by the same amount as the compound. Three days after the addition of the compound, DMEM was eliminated. 10% TCA (trichloroacetic acid) was added to fix the cells. The wells were washed with running water three times and the live cells were stained with SRB solution (1 sulphorodamine B). Then, OD was measured to calculate the population of the live cells.

H2228 cells [1] = assay: cells; conditions: Homo sapiens, NCI-H2228, 72 h, read-out: Cytotoxicity H2228 (GI50 μM), H2228 cells, three days, SRB
H2228 cells [2] = conditions: human, 3 days
ALK WT = ALK WT (Homo sapiens (Human), UniProt Q9UM73); conditions: read-out: ALK WT (IC50 μM); ALK enzyme, HTRF
ALK WT, sequence (Q9UM73 19-1620): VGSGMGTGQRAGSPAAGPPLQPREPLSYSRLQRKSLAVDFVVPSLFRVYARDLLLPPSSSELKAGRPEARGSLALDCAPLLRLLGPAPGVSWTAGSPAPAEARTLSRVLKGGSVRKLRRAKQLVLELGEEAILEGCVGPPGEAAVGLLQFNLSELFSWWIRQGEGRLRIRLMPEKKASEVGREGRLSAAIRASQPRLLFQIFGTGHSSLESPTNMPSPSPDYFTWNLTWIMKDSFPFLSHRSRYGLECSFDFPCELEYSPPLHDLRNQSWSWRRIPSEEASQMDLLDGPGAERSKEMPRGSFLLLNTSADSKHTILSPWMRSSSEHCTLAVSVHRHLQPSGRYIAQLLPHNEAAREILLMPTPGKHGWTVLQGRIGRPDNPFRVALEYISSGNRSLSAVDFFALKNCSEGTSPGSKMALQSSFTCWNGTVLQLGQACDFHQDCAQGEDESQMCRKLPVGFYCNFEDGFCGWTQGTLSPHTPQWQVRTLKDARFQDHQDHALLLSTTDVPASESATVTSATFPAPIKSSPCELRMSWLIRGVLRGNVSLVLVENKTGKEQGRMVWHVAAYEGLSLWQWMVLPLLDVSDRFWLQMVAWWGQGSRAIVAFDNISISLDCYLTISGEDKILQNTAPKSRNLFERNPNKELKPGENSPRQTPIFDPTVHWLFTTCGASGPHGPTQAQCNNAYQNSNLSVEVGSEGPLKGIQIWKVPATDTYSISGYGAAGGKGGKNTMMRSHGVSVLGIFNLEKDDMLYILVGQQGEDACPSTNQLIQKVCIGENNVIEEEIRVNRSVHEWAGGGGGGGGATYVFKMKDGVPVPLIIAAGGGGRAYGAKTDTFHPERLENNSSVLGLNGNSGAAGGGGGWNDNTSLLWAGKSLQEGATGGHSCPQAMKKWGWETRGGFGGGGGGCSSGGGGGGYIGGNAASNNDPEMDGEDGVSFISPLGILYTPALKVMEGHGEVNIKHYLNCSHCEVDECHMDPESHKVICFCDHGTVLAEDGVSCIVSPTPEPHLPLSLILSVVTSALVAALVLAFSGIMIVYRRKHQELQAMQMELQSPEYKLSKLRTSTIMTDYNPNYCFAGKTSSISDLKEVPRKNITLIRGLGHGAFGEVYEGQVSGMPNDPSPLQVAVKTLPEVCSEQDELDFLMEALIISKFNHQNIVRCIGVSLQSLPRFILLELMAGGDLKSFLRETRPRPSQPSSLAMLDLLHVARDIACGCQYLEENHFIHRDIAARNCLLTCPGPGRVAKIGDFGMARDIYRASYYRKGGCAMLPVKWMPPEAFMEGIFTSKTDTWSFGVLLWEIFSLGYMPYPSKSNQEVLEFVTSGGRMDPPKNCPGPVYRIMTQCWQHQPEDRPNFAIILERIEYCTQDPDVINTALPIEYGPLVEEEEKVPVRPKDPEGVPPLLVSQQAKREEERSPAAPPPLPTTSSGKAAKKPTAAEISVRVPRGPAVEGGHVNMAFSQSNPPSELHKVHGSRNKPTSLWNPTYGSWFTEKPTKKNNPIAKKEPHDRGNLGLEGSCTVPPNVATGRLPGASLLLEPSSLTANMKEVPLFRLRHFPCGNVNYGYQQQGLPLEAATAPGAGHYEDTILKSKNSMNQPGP
Experimental: To measure the activity to inhibit ALK, each of the compounds prepared in examples listed in table 2 (2 μl) was loaded in a 384 well plate. Then, each of the compounds was mixed with anaplastic lymphoma kinase (ALK) enzyme (1 μl) and biotin conjugated peptide substrate (2 μl), followed by culture for 15 minutes. ATP solution (5 μl) was added thereto, followed by kinase reaction at room temperature for 30 minutes. […] Upon completion of the reaction, one hour culture was performed, followed by analysis using homogeneous time-resolved fluorescence (HTRF, Cisbio).

[3] = system: H3122 induced lung cancer; assay: In vivo xenograft evaluation for H3122 induced lung cancer; design: species or system nude mice (BALB/c nu/nu); conditions: H3122 xenograft in nude mice, orally administered q.d.×14, FIG. 1
From the text: The nude mice (BALB/c nu/nu, female) used in this experiment were purchased from Charles River Japan, Inc. and raised and tested under SPF (Specific Pathogen Free) control. The human non-small cell lung cancer cell line H3122 maintained by Korea Research Institute of Chemical Technology was used in this experiment.
The female nude mice adapted to the laboratory were implanted with cancer. Particularly, H3122 cells grown to the appropriate size for passage were cut into 3×3×3 mm^3, which was transplanted (s.c.) under the right side of the nude mouse. When the size of the implanted cancer reached about 200 mm^3, administration of the compound of example 58 was started; this was the first day (day 1). For the control, 20% PEG 400+3% Tween 80 in DDW was orally administered. For the experimental group (7 mice/group), the compound was dissolved in the same solvent of the control, which was orally administered 14 times in total (q.d.×14). The size of the cancer was measured every 2-3 days after the administration using a caliper and the diameters (long diameter (a), short diameter (b)) of the cancer were measured. The size of the cancer (volume, V) was calculated according to mathematical formula 1. Volume (mm^3)=a×b^2/2 Mathematical Formula 1
(In the mathematical formula 1,
a represents the horizontal length of the cancer; and
b represents the vertical short length of the cancer).

Ba/F3 EML4-ALK WT cells = assay: cells; assay type: cell-based, rodent; conditions: Ba/F3 EML4-ALK, read-out: Ba/F3 EML-ALK WT (IC50 μM)

Row | GI50 (H2228 cells [2]) [nM] | Structure (SMILES) | GI50 (H3122 cells) [µM] | GI50 (H3122 cells; Homo sapiens, NCI-H3122, 72 h) [µM] | GI50 (H2228 cells [1]) [µM] | IC50 (ALK WT) [µM] | size of the cancer (volume) [3] | IC50 (Ba/F3 EML4-ALK WT cells) [µM]
1 | 660 | COC(=O)CCNCCc1ccc(OC)c(Nc2ncc(Cl)c(Nc3ccccc3S(=O)(=O)C(C)C)n2)c1 [Example 24, methyl 3-(3-(5-chloro-4-(2-(isopropylsulfonyl)phenylamino)pyrimidine-2-ylamino)-4-methoxyphenethylamino)propanoate] | 0.09 | ≤ 0.1 | ≤ 1 | – | – | –
2 | 870 | COc1ccc(CCN(CCO)CCO)cc1Nc1ncc(Cl)c(Nc2ccccc2S(=O)(=O)C(C)C)n1 [Example 39, 2,2′-(3-(5-chloro-4-(2-(isopropylsulfonyl)phenylamino)pyrimidine-2-ylamino)-4-methoxyphenethylazeindiyl)diethanol] | – | 0.93 | ≤ 1 | – | – | –
3 | – | COc1cc(CCN)c(C)cc1Nc1ncc(Cl)c(Nc2ccccc2S(=O)(=O)C(C)C)n1 [Example 55, N2-(4-(2-aminoethyl)-2-methoxy-5-methylphenyl)-5-chloro-N4-(2-(isopropylsulfonyl)phenyl)pyrimidine-2,4-diamine] | – | 0.06 | – | 0.0027 | – | –
4 | – | COc1cc(C(C)(C)CN)c(C)cc1Nc1ncc(Cl)c(Nc2ccccc2S(=O)(=O)C(C)C)n1 [Example 56, N2-(4-(1-amino-2-methylpropane-2-yl)-2-methoxy-5-methylphenyl)-5-chloro-N4-(2-(isopropylsulfonyl)phenyl)pyrimidine-2,4-diamine] | – | 0.053 | – | 0.0049 | – | –
5 | – | COc1cc(CCN(C)C)c(C)cc1Nc1ncc(Cl)c(Nc2ccccc2S(=O)(=O)C(C)C)n1 [Example 58, 5-chloro-N2-(4-(2-(dimethylamino)ethyl)-2-methoxy-5-methylphenyl)-N4-(2-(isopropylsulfonyl)phenyl)pyrimidine-2,4-diamine] | – | 0.013 | – | 0.0014 | the effect of inhibiting cancer size was excellent, similar to LDK378 | 0.01
6 | – | COc1cc(C(C)(C)CNC=O)c(C)cc1Nc1ncc(Cl)c(Nc2ccccc2S(=O)(=O)C(C)C)n1 [Example 59, N-(2-(4-((5-chloro-4-((2-(isopropylsulfonyl)phenyl)amino)pyrimidine-2-yl)amino)-5-methoxy-2-methylphenyl)-2-methylpropyl)formamide] | – | 0.063 | – | 0.0078 | – | –
7 | – | CNCC(C)(C)c1cc(OC)c(Nc2ncc(Cl)c(Nc3ccccc3S(=O)(=O)C(C)C)n2)cc1C [Example 60, 5-chloro-N4-(2-(isopropylsulfonyl)phenyl)-N2-(2-methoxy-5-methyl-4-(2-methyl-1-(methylamino)propane-2-yl)phenyl)pyrimidine-2,4-diamine] | – | 0.041 | – | 0.0015 | – | 0.019
8 | – | COc1cc(CCNC=O)c(C)cc1Nc1ncc(Cl)c(Nc2ccccc2S(=O)(=O)C(C)C)n1 [Example 62, N-(4-((5-chloro-4-((2-(isopropylsulfonyl)phenyl)amino)pyrimidine-2-yl)amino)-5-methoxy-2-methylphenethyl)formamide] | – | 0.068 | – | 0.004 | – | –
9 | – | CNCCc1cc(OC)c(Nc2ncc(Cl)c(Nc3ccccc3S(=O)(=O)C(C)C)n2)cc1C [Example 63, 5-chloro-N4-(2-(isopropylsulfonyl)phenyl)-N2-(2-methoxy-5-methyl-4-(2-(methylamino)ethyl)phenyl)pyrimidine-2,4-diamine] | – | 0.02 | – | 0.0015 | – | –
10 | – | CNC(C)(C)c1cc(OC)c(Nc2ncc(Cl)c(Nc3ccccc3S(=O)(=O)C(C)C)n2)cc1C [Example 64, 5-chloro-N4-(2-(isopropylsulfonyl)phenyl)-N2-(2-methoxy-5-methyl-4-(2-(methylamino)propane-2-yl)phenyl)pyrimidine-2,4-diamine] | – | 0.029 | – | 0.0012 | – | 0.015
11 | – | COc1cc(C(C)(C)CN(C)C)c(C)cc1Nc1ncc(Cl)c(Nc2ccccc2S(=O)(=O)C(C)C)n1 [Example 65, 5-chloro-N2-(4-(1-(dimethylamino)-2-methylpropane-2-yl)-2-methoxy-5-methylphenyl)-N4-(2-(isopropylsulfonyl)phenyl)pyrimidine-2,4-diamine] | – | 0.026 | – | 0.0022 | – | 0.014
12 | – | COc1cc(C(C)(C)N(C)C)c(C)cc1Nc1ncc(Cl)c(Nc2ccccc2S(=O)(=O)C(C)C)n1 [Example 66, 5-chloro-N2-(4-(2-(dimethylamino)propane-2-yl)-2-methoxy-5-methylphenyl)-N4-(2-(isopropylsulfonyl)phenyl)pyrimidine-2,4-diamine] | – | 0.035 | – | 0.0028 | – | –
13 | – | COc1cc(CN(C)C)c(C)cc1Nc1ncc(Cl)c(Nc2ccccc2S(=O)(=O)C(C)C)n1 [Example 70, 5-chloro-N2-(4-((dimethylamino)methyl)-2-methoxy-5-methylphenyl)-N4-(2-(isopropylsulfonyl)phenyl)pyrimidine-2,4-diamine] | – | 0.037 | – | – | – | 0.021
14 | – | CNCc1cc(OC)c(Nc2ncc(Cl)c(Nc3ccccc3S(=O)(=O)C(C)C)n2)cc1C [Example 72, 5-chloro-N4-(2-(isopropylsulfonyl)phenyl)-N2-(2-methoxy-5-methyl-4-((methylamino)methyl)phenyl)pyrimidine-2,4-diamine] | – | 0.025 | – | 0.00174 | – | 0.015
15 | – | C=C(C)c1cc(OCC)c(Nc2ncc(Cl)c(Nc3ccccc3S(=O)(=O)C(C)C)n2)cc1CCN [Example 74, N2-(5-(2-aminoethyl)-2-ethoxy-4-(prop-1-ene-2-yl)phenyl)-5-chloro-N4-(2-(isopropylsulfonyl)phenyl)pyrimidine-2,4-diamine] | – | 0.77 | – | – | – | 0.36
16 | – | C=C(C)c1cc(OC)c(Nc2ncc(Cl)c(Nc3ccccc3S(=O)(=O)C(C)C)n2)cc1CCN [Example 75, N2-(5-(2-aminoethyl)-2-methoxy-4-(prop-1-ene-2-yl)phenyl)-5-chloro-N4-(2-(isopropylsulfonyl)phenyl)pyrimidine-2,4-diamine] | – | 0.23 | – | – | – | 0.11
17 | – | Cc1cc(Nc2ncc(Cl)c(Nc3ccccc3S(=O)(=O)C(C)C)n2)c(OC(C)C)cc1C1CCNCC1 [LDK378, Ceritinib, reference compound] | – | – | – | – | the effect of inhibiting cancer size was excellent, similar to LDK378 | –
